Columns and labels:
Test in all cases: Test B pre-/postemergence
Type in all cases: in vivo
Parameters in all cases: key: 0 is no effect; 10 is complete control
rape (Brassica napus) = tested on: rape (Brassica napus)
Method in brief: (§1)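 Response scores run from 0, meaning no effect, to 10, meaning complete control, assigned by eye relative to controls twelve to sixteen days after spraying. Treatment was both preemergence on planted seed and postemergence on plants at the 1- to 4-leaf stage.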

[1] = tested on: cocklebur (Xanthium strumarium)
Method in brief: as §1

soybean (Glycine max) = tested on: soybean (Glycine max)
Method in brief: as §1

[2] = tested on: purple nutsedge (Cyperus rotundus)
Method in brief: as §1

wild oat (Avena fatua) = tested on: wild oat (Avena fatua)
Method in brief: as §1

[3] = tested on: bedstraw (Galium aparine)
Method in brief: as §1

[4] = tested on: sugar beet (Beta vulgaris)
Method in brief: as §1

corn (Zea mays) = tested on: corn (Zea mays)
Method in brief: as §1

[5] = tested on: wheat (Triticum aestivum)
Method in brief: as §1

[6] = tested on: crabgrass (Digitaria sanguinalis)
Method in brief: as §1

[7] = tested on: giant foxtail (Setaria faberii)
Method in brief: as §1

[8] = tested on: momingglory (Ipomoea hederacea)
Method in brief: as §1

[9] = tested on: pigweed (Amaranthus retroflexus)
Method in brief: as §1

[10] = tested on: velvetleaf (Abutilon theophrasti)
Method in brief: as §1

[11] = Preemergence, Rate 62 g/ha, scale of 0 to 10

## Cc1cnc(-c2ccc(C(F)(F)F)cc2)nc1C(=O)c1cccc(C(F)(F)F)c1 [Compound 73]
Rape (Brassica napus); [11]
  Plant response rating, Rape: 2
Rape (Brassica napus); Rate 62 g/ha, Postemergence
  Rape plant response rating: 10
Rape (Brassica napus); Rate 125 g/ha, Postemergence
  Rape plant response rating: 10
Rape (Brassica napus); Rate 125 g/ha, Preemergence
  Plant response rating, Rape: 6
Rape (Brassica napus); Rate 250 g/ha, Postemergence
  Plant response rating, Rape: 10
Rape (Brassica napus); Rate 250 g/ha, Preemergence
  Plant response rating, Rape: 6
Rape (Brassica napus); Rate 500 g/ha, Postemergence
  Plant response rating, Rape: 10
Rape (Brassica napus); Rate 500 g/ha, Preemergence
  Plant response rating, Rape: 10
[1]; [11]
  Plant response rating, Cocklebur: 0
[1]; Rate 62 g/ha, Postemergence
  Cocklebur plant response rating: 9
[1]; Rate 125 g/ha, Postemergence
  Cocklebur plant response rating: 9
[1]; Rate 125 g/ha, Preemergence
  Plant response rating, Cocklebur: 1
[1]; Rate 250 g/ha, Postemergence
  Plant response rating, Cocklebur: 9
[1]; Rate 250 g/ha, Preemergence
  Plant response rating, Cocklebur: 7
[1]; Rate 500 g/ha, Postemergence
  Plant response rating, Cocklebur: 8
Soybean (Glycine max); [11]
  Plant response rating, Soybean: 0
Soybean (Glycine max); Rate 62 g/ha, Postemergence
  Soybean plant response rating: 8
Soybean (Glycine max); Rate 125 g/ha, Postemergence
  Soybean plant response rating: 9
Soybean (Glycine max); Rate 125 g/ha, Preemergence
  Plant response rating, Soybean: 1
Soybean (Glycine max); Rate 250 g/ha, Postemergence
  Plant response rating, Soybean: 9
Soybean (Glycine max); Rate 250 g/ha, Preemergence
  Plant response rating, Soybean: 1
Soybean (Glycine max); Rate 500 g/ha, Postemergence
  Plant response rating, Soybean: 6
Soybean (Glycine max); Rate 500 g/ha, Preemergence
  Plant response rating, Soybean: 2
[2]; [11]
  Plant response rating, Nutsedge: 0
[2]; Rate 62 g/ha, Postemergence
  Nutsedge plant response rating: 0
[2]; Rate 125 g/ha, Postemergence
  Nutsedge plant response rating: 0
[2]; Rate 125 g/ha, Preemergence
  Plant response rating, Nutsedge: 0
[2]; Rate 250 g/ha, Postemergence
  Plant response rating, Nutsedge: 2
[2]; Rate 250 g/ha, Preemergence
  Plant response rating, Nutsedge: 0
[2]; Rate 500 g/ha, Preemergence
  Plant response rating, Nutsedge: 0
Wild oat (Avena fatua); [11]
  Plant response rating, Wild oats: 7
Wild oat (Avena fatua); Rate 62 g/ha, Postemergence
  Wild oats plant response rating: 6
Wild oat (Avena fatua); Rate 125 g/ha, Postemergence
  Wild oats plant response rating: 7
Wild oat (Avena fatua); Rate 125 g/ha, Preemergence
  Plant response rating, Wild oats: 9
Wild oat (Avena fatua); Rate 250 g/ha, Postemergence
  Plant response rating, Wild oats: 9
Wild oat (Avena fatua); Rate 250 g/ha, Preemergence
  Plant response rating, Wild oats: 10
Wild oat (Avena fatua); Rate 500 g/ha, Postemergence
  Plant response rating, Wild oats: 9
Wild oat (Avena fatua); Rate 500 g/ha, Preemergence
  Plant response rating, Wild oats: 10
[3]; [11]
  Plant response rating, Bedstraw: 2
[3]; Rate 62 g/ha, Postemergence
  Bedstraw plant response rating: 9
[3]; Rate 125 g/ha, Postemergence
  Bedstraw plant response rating: 9
[3]; Rate 125 g/ha, Preemergence
  Plant response rating, Bedstraw: 8
[3]; Rate 250 g/ha, Postemergence
  Plant response rating, Bedstraw: 9
[3]; Rate 250 g/ha, Preemergence
  Plant response rating, Bedstraw: 9
[3]; Rate 500 g/ha, Postemergence
  Plant response rating, Bedstraw: 9
[3]; Rate 500 g/ha, Preemergence
  Plant response rating, Bedstraw: 10
[4]; [11]
  Plant response rating, Sugarbeets: 9
[4]; Rate 62 g/ha, Postemergence
  Sugarbeets plant response rating: 10
[4]; Rate 125 g/ha, Postemergence
  Sugarbeets plant response rating: 10
[4]; Rate 125 g/ha, Preemergence
  Plant response rating, Sugarbeets: 9
[4]; Rate 250 g/ha, Postemergence
  Plant response rating, Sugarbeets: 9
[4]; Rate 250 g/ha, Preemergence
  Plant response rating, Sugarbeets: 10
[4]; Rate 500 g/ha, Postemergence
  Plant response rating, Sugarbeets: 9
[4]; Rate 500 g/ha, Preemergence
  Plant response rating, Sugarbeets: 10
Corn (Zea mays); [11]
  Plant response rating, Corn: 1
Corn (Zea mays); Rate 62 g/ha, Postemergence
  Corn plant response rating: 2
Corn (Zea mays); Rate 125 g/ha, Postemergence
  Corn plant response rating: 3
Corn (Zea mays); Rate 125 g/ha, Preemergence
  Plant response rating, Corn: 1
Corn (Zea mays); Rate 250 g/ha, Postemergence
  Plant response rating, Corn: 3
Corn (Zea mays); Rate 250 g/ha, Preemergence
  Plant response rating, Corn: 2
Corn (Zea mays); Rate 500 g/ha, Postemergence
  Plant response rating, Corn: 3
Corn (Zea mays); Rate 500 g/ha, Preemergence
  Plant response rating, Corn: 2
[5]; [11]
  Plant response rating, Wheat: 2
[5]; Rate 62 g/ha, Postemergence
  Wheat plant response rating: 4
[5]; Rate 125 g/ha, Postemergence
  Wheat plant response rating: 4
[5]; Rate 125 g/ha, Preemergence
  Plant response rating, Wheat: 4
[5]; Rate 250 g/ha, Postemergence
  Plant response rating, Wheat: 5
[5]; Rate 250 g/ha, Preemergence
  Plant response rating, Wheat: 7
[5]; Rate 500 g/ha, Postemergence
  Plant response rating, Wheat: 6
[5]; Rate 500 g/ha, Preemergence
  Plant response rating, Wheat: 9
[6]; [11]
  Plant response rating, Crabgrass: 10
[6]; Rate 62 g/ha, Postemergence
  Crabgrass plant response rating: 7
[6]; Rate 125 g/ha, Postemergence
  Crabgrass plant response rating: 9
[6]; Rate 125 g/ha, Preemergence
  Plant response rating, Crabgrass: 10
[6]; Rate 250 g/ha, Postemergence
  Plant response rating, Crabgrass: 9
[6]; Rate 250 g/ha, Preemergence
  Plant response rating, Crabgrass: 10
[6]; Rate 500 g/ha, Postemergence
  Plant response rating, Crabgrass: 9
[6]; Rate 500 g/ha, Preemergence
  Plant response rating, Crabgrass: 10
[7]; [11]
  Plant response rating, Giant foxtail: 10
[7]; Rate 62 g/ha, Postemergence
  Giant foxtail plant response rating: 6
[7]; Rate 125 g/ha, Postemergence
  Giant foxtail plant response rating: 8
[7]; Rate 125 g/ha, Preemergence
  Plant response rating, Giant foxtail: 10
[7]; Rate 250 g/ha, Postemergence
  Plant response rating, Giant foxtail: 9
[7]; Rate 250 g/ha, Preemergence
  Plant response rating, Giant foxtail: 10
[7]; Rate 500 g/ha, Postemergence
  Plant response rating, Giant foxtail: 9
[7]; Rate 500 g/ha, Preemergence
  Plant response rating, Giant foxtail: 10
[8]; [11]
  Plant response rating, Morningglory: 3
[8]; Rate 62 g/ha, Postemergence
  Morningglory plant response rating: 9
[8]; Rate 125 g/ha, Postemergence
  Morningglory plant response rating: 9
[8]; Rate 125 g/ha, Preemergence
  Plant response rating, Morningglory: 9
[8]; Rate 250 g/ha, Postemergence
  Plant response rating, Morningglory: 9
[8]; Rate 250 g/ha, Preemergence
  Plant response rating, Morningglory: 9
[8]; Rate 500 g/ha, Postemergence
  Plant response rating, Morningglory: 10
[8]; Rate 500 g/ha, Preemergence
  Plant response rating, Morningglory: 10
[9]; [11]
  Plant response rating, Redroot pigweed: 9
[9]; Rate 62 g/ha, Postemergence
  Redroot pigweed plant response rating: 9
[9]; Rate 125 g/ha, Postemergence
  Redroot pigweed plant response rating: 9
[9]; Rate 125 g/ha, Preemergence
  Plant response rating, Redroot pigweed: 10
[9]; Rate 250 g/ha, Postemergence
  Plant response rating, Redroot pigweed: 10
[9]; Rate 250 g/ha, Preemergence
  Plant response rating, Redroot pigweed: 10
[9]; Rate 500 g/ha, Postemergence
  Plant response rating, Redroot pigweed: 10
[9]; Rate 500 g/ha, Preemergence
  Plant response rating, Redroot pigweed: 10
[10]; [11]
  Plant response rating, Velvetleaf: 2
[10]; Rate 62 g/ha, Postemergence
  Velvetleaf plant response rating: 9
[10]; Rate 125 g/ha, Postemergence
  Velvetleaf plant response rating: 9
[10]; Rate 125 g/ha, Preemergence
  Plant response rating, Velvetleaf: 4
[10]; Rate 250 g/ha, Postemergence
  Plant response rating, Velvetleaf: 9
[10]; Rate 250 g/ha, Preemergence
  Plant response rating, Velvetleaf: 7
[10]; Rate 500 g/ha, Postemergence
  Plant response rating, Velvetleaf: 10
[10]; Rate 500 g/ha, Preemergence
  Plant response rating, Velvetleaf: 8

— patent US6525001B1, “Substituted pyrimidine and pyridine herbicides” (Mid-American Commercialization Corporation, priority 1997, dated 2003)
